Reference: ChEMBL document CHEMBL3621185, “Progress in the development of fatty acid synthase inhibitors as anticancer targets” (Bioorg Med Chem Lett, 2015)

Key:
Fatty acid synthase [1] = molecular target: T1, Fatty acid synthase (Homo sapiens, UniProt P49327); assay: Inhibition of fatty acid synthase (unknown origin)
[2] = Cytotoxicity against human PC-3M-luc-C6 cells; assay type: functional, cell-based
A2780 = assay: Cytotoxicity against human A2780 cells; assay type: functional, cell-based
Fatty acid synthase [3] = molecular target: T1, Fatty acid synthase; assay: Inhibition of fatty acid synthase KR domain (unknown origin)
[4] = Cytotoxicity against human MCF10A cells; assay type: functional, cell-based; settings: MCF-10A

T1 sequence (P49327 whole entry): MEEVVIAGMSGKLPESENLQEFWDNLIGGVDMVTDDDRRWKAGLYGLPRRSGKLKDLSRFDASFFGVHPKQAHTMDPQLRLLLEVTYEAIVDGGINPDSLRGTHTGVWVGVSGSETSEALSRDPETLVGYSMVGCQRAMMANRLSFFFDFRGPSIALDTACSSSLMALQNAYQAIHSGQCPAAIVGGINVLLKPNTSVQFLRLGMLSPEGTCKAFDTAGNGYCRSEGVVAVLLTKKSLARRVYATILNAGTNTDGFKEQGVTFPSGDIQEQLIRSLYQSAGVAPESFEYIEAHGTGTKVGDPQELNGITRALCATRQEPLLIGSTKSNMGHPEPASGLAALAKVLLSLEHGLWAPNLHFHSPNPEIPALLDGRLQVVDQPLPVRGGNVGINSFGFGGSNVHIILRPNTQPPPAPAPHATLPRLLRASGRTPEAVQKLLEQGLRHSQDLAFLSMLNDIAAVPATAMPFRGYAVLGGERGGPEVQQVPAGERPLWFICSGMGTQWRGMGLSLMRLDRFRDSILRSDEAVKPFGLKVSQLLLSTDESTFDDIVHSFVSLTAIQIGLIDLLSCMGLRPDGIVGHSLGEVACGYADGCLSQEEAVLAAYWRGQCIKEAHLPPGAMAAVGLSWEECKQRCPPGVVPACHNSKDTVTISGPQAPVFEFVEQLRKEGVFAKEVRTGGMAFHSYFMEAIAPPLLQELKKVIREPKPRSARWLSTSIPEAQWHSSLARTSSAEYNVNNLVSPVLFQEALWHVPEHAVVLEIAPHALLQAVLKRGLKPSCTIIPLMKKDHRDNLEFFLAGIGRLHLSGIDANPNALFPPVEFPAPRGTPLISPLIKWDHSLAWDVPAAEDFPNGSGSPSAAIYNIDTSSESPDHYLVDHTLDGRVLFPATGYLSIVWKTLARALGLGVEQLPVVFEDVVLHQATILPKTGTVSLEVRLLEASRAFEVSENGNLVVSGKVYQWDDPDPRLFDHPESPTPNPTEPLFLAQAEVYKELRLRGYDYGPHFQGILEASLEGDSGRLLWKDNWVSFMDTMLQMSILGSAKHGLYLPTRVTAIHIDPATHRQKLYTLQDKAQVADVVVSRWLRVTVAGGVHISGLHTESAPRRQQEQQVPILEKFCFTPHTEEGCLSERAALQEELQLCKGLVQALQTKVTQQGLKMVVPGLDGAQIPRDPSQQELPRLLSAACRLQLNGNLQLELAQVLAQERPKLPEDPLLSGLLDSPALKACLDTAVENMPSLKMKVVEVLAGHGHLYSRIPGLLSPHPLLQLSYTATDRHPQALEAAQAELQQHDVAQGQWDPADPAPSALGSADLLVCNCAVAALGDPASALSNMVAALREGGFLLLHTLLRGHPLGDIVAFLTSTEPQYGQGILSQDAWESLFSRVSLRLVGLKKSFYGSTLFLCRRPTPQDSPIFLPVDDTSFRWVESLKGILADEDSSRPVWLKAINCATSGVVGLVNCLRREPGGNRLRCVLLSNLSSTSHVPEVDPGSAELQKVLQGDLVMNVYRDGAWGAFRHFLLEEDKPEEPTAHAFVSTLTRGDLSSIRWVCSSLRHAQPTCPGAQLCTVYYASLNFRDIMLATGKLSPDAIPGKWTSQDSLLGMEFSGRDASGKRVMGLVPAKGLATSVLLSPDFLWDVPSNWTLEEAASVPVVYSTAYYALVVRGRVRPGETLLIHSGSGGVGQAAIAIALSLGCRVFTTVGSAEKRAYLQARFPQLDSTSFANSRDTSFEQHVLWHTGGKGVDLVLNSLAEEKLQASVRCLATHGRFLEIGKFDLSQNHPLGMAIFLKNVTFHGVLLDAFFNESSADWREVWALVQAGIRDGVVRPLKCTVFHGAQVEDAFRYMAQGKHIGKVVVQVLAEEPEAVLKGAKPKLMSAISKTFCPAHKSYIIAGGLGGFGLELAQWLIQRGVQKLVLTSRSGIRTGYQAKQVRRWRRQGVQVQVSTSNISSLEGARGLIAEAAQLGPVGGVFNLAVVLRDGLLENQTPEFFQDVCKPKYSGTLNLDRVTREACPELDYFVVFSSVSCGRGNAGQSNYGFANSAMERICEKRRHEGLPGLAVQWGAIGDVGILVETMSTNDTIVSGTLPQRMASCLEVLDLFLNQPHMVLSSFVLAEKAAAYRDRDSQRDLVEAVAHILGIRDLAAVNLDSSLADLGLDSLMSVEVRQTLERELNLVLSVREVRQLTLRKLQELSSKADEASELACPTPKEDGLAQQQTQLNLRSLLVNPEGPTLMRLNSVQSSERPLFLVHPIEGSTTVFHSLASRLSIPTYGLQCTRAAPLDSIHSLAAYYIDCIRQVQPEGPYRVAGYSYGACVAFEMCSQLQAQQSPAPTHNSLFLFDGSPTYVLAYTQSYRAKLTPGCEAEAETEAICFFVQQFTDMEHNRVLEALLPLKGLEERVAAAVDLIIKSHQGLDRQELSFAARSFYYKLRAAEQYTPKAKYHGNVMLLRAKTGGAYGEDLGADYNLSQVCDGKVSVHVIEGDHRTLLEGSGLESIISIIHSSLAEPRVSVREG

Q: With `N#Cc1ccc2cc(N3CCN(S(=O)(=O)N4CCC5(CC4)CN(C4CC4)C(=O)CO5)CC3)ccc2c1` as the compound, how does the IC50 (Fatty acid synthase [1]) read?
A: 10 nM

Q: What does the source list for `CC1(C)N=C(c2ccc(-c3c[nH]c4ccccc34)cc2)N(C[C@@H]2CCN(C(=O)C3CC3)C2)C1=O`?
A: IC50 [2]: 8 nM; IC50 (A2780): 3 nM; IC50 (Fatty acid synthase [3]): 41 nM

Q: Which IC50 (Fatty acid synthase [1]) does the source give for `O=C(C1CC1)N1CCC(Cn2cnnc2-c2ccc(-c3ccc4[nH]ncc4c3)cc2)C1` (single isomer, unassigned) here?
A: 13 nM

Q: With `O=C(C1CC1)N1CC[C@@H](Cc2n[nH]c(=O)n2-c2ccc(-c3ccc4ccncc4c3)cc2F)C1` as the compound, how does the IC50 (Fatty acid synthase [1]) read?
A: 3 nM

Q: Which IC50 (Fatty acid synthase [1]) does the source give for `CN(C[C@@H]1CCN(C(=O)C2CC2)C1)C(=O)c1ccc(-c2ccc3[nH]ccc3c2)cc1F` here?
A: 20 nM

Q: For `Cc1cc(C)cc(N2C(=O)NC(=O)/C(=C\c3ccc(-c4ccccc4)o3)C2=O)c1`, which IC50 [4] is on record?
A: 24300 nM

Q: Which results are given for `Cc1ccc(C(=O)N2CCC(c3ccc4nncn4c3)CC2)cc1NC(=O)c1ccc(Cl)nc1`?
A: IC50 [2]: 35 nM; IC50 (A2780): 41 nM; IC50 (Fatty acid synthase [3]): 93 nM

Q: Which IC50 (Fatty acid synthase [1]) does the source give for `O=C1COC2(CCN(S(=O)(=O)c3ccc(-c4cccc5cnccc45)cc3)CC2)CN1C1CC1` here?
A: 6 nM
